Data taken from the supplement of paper PMC11281043.

Tests used:
Conditions in all cases: exposure: 6-8 hpf to 5 dpf, scored at 6 dpf
Danio rerio embryo/larva [1] = experiment: max % larvae with blood pooling across tested concentrations; higher = more toxic; extreme values may be limits of the assay
Danio rerio embryo/larva [2] = experiment: max % larvae with edema across tested concentrations; higher = more toxic; extreme values may be limits of the assay
Danio rerio embryo/larva [3] = experiment: max % larvae with craniofacial defects across tested concentrations; higher = more toxic; extreme values may be limits of the assay
Danio rerio embryo/larva [4] = experiment: max % larvae with abnormal position across tested concentrations; higher = more toxic; extreme values may be limits of the assay
Danio rerio embryo/larva [5] = experiment: max % larvae with uninflated swim bladder across tested concentrations; higher = more toxic; extreme values may be limits of the assay
Danio rerio embryo/larva [6] = experiment: max % larvae generally abnormal across tested concentrations; higher = more toxic; extreme values may be limits of the assay
Danio rerio embryo/larva [7] = experiment: max % larvae with spinal defects across tested concentrations; higher = more toxic; extreme values may be limits of the assay
Danio rerio embryo/larva [8] = experiment: max % larvae with tail defects across tested concentrations; higher = more toxic; extreme values may be limits of the assay
Danio rerio embryo/larva [9] = experiment: max % larvae with pigmentation defects across tested concentrations; higher = more toxic

Row | Compound | max % larvae (Danio rerio embryo/larva [1]) [%] | max % larvae (Danio rerio embryo/larva [2]) [%] | max % larvae (Danio rerio embryo/larva [3]) [%] | max % larvae (Danio rerio embryo/larva [4]) [%] | max % larvae (Danio rerio embryo/larva [5]) [%] | max % larvae generally abnormal across tested concentrations (Danio rerio embryo/larva [6]) [%] | max % larvae (Danio rerio embryo/larva [7]) [%] | max % larvae (Danio rerio embryo/larva [8]) [%] | max % larvae (Danio rerio embryo/larva [9]) [%]
1 | O=C(CC(=O)C(F)(F)C(F)(F)C(F)(F)F)c1cccs1 [(Perfluorobutyryl)-2-thenoylmethane] (max tested concentration (log10 uM): 0.477121) | 0 | 8.33 | 8.33 | 0 | 16.7 | 8.33 | 0 | 0 | 0
2 | C=C(C)C(=O)OCC(F)(F)C(F)(F)C(F)(F)C(F)(F)C(F)(F)C(F)(F)C(F)(F)F [(Perfluoroheptyl)methyl methacrylate] (max tested concentration (log10 uM): 1.60206) | 0 | 0 | 0 | 0 | 0 | 0 | 0 | 0 | 0
3 | CO[Si](C)(CCC(F)(F)C(F)(F)C(F)(F)C(F)(F)C(F)(F)C(F)(F)F)OC [Dimethoxymethyl((perfluorohexyl)ethyl)silane] (max tested concentration (log10 uM): 1.60206) | 0 | 0 | 0 | 0 | 0 | 0 | 0 | 0 | 0
4 | CCOC(=O)CC(=O)C(F)(F)C(F)(F)F [Ethyl pentafluoropropionyl acetate] (max tested concentration (log10 uM): 2) | 0 | 0 | 0 | 0 | 0 | 0 | 0 | 0 | 0
5 | FC(F)(F)C(F)(F)C(F)(F)CI [Heptafluorobutyl iodide] (max tested concentration (log10 uM): 2) | 0 | 0 | 0 | 0 | 0 | 0 | 0 | 0 | 0
6 | OCC(F)(F)C(F)(F)C(F)(F)CO [Hexafluoroamylene glycol] (max tested concentration (log10 uM): 2) | 0 | 0 | 0 | 0 | 0 | 0 | 0 | 0 | 0
7 | O=C(Cl)C(F)(F)C(F)(F)C(F)(F)C(=O)Cl [Hexafluoroglutaryl chloride] (max tested concentration (log10 uM): 2) | 0 | 0 | 0 | 0 | 0 | 0 | 0 | 0 | 0
8 | COC(=O)C(F)(F)C(F)(F)OC(F)(C(F)(F)F)C(F)(F)OC(F)=C(F)F (stereo unspecified) [Methyl perfluoro(3-(1-ethenyloxypropan-2-yloxy)propanoate)] (max tested concentration (log10 uM): 1.60206) | 0 | 8.33 | 0 | 4.17 | 0 | 8.33 | 0 | 0 | 0
9 | COC(=O)C(F)(F)C(F)(F)C(F)(F)C(F)(F)C(F)(F)F [Methyl perfluorohexanoate] (max tested concentration (log10 uM): 2) | 0 | 0 | 0 | 0 | 0 | 0 | 0 | 0 | 0
10 | CCN(CCO)S(=O)(=O)C(F)(F)C(F)(F)C(F)(F)C(F)(F)C(F)(F)C(F)(F)C(F)(F)C(F)(F)F [N-Ethyl-N-(2-hydroxyethyl)perfluorooctane sulfonamide] (max tested concentration (log10 uM): 2) | 0 | 8.33 | 0 | 0 | 8.33 | 8.33 | 0 | 0 | 0
11 | CN(C(=O)C(F)(F)C(F)(F)C(F)(F)F)[Si](C)(C)C [N-Methyl-N-trimethylsilylheptafluorobutyramide] (max tested concentration (log10 uM): 2) | 0 | 0 | 0 | 0 | 0 | 0 | 0 | 0 | 0
12 | NC(=O)C(F)(F)C(F)(F)C(F)(F)C(F)(F)F [Nonafluoropentanamide] (max tested concentration (log10 uM): 2) | 0 | 0 | 0 | 0 | 0 | 0 | 0 | 0 | 0
13 | NC(=O)C(F)(F)C(F)(F)C(F)(F)C(F)(F)C(N)=O [Octafluoroadipamide] (max tested concentration (log10 uM): 2) | 0 | 0 | 0 | 0 | 0 | 0 | 0 | 0 | 0
14 | O=C(Cl)C(F)(F)C(F)(F)C(F)(F)C(F)(F)C(F)(F)C(F)(F)C(F)(F)F [Pentadecafluorooctanoyl chloride] (max tested concentration (log10 uM): 2) | 16.7 | 16.7 | 16.7 | 12.5 | 16.7 | 16.7 | 12.5 | 12.5 | 0
15 | NC(=O)C(F)(F)C(F)(F)F [Pentafluoropropionamide] (max tested concentration (log10 uM): 2) | 0 | 0 | 0 | 0 | 0 | 0 | 0 | 0 | 0
16 | O=C(O)C(F)(F)C(F)(F)C(F)(F)OC(F)(F)F [Perfluoro(4-methoxybutanoic acid)] (max tested concentration (log10 uM): 2) | 0 | 0 | 0 | 0 | 0 | 0 | 0 | 0 | 0
17 | FC(F)(F)C(F)(F)C(F)(F)C(F)(F)C(F)(F)C(F)(F)I [Perfluoro-1-iodohexane] (max tested concentration (log10 uM): 2) | 0 | 0 | 0 | 0 | 0 | 0 | 0 | 0 | 0
18 | O=S(=O)(O)C(F)(F)C(F)(F)OC(F)(F)C(F)(F)F [Perfluoro-2-ethoxyethanesulfonic acid] (max tested concentration (log10 uM): 2) | 0 | 8.33 | 0 | 0 | 16.7 | 8.33 | 0 | 0 | 0
19 | O=C(O)C(F)(F)OC(F)(F)C(F)(F)OC(F)(F)C(F)(F)OC(F)(F)F [Perfluoro-3,6,9-trioxadecanoic acid] (max tested concentration (log10 uM): 2) | 40 | 45 | 40 | 25 | 100 | 70 | 20 | 30 | 0
20 | O=C(O)C(F)(F)OC(F)(F)C(F)(F)OC(F)(F)C(F)(F)C(F)(F)C(F)(F)F [Perfluoro-3,6-dioxadecanoic acid] (max tested concentration (log10 uM): 2) | 50 | 56.2 | 75 | 31.2 | 62.5 | 68.8 | 0 | 6.25 | 0
21 | O=C(O)C(F)(F)OC(F)(F)C(F)(F)OC(F)(F)F [Perfluoro-3,6-dioxaheptanoic acid] (max tested concentration (log10 uM): 2) | 0 | 4.17 | 0 | 0 | 0 | 4.17 | 0 | 0 | 0
22 | O=C(O)C(F)(F)OC(F)(F)C(F)(F)OC(F)(F)C(=O)O [Perfluoro-3,6-dioxaoctane-1,8-dioic acid] (max tested concentration (log10 uM): 2) | 0 | 0 | 0 | 0 | 0 | 0 | 0 | 0 | 0
23 | O=C(O)C(F)(F)C(F)(F)C(F)(F)OC(F)(C(F)(F)F)C(F)(F)F [Perfluoro-4-isopropoxybutanoic acid] (max tested concentration (log10 uM): 2) | 0 | 0 | 0 | 0 | 0 | 0 | 0 | 0 | 0
24 | O=S(=O)(O)C(F)(F)C(F)(F)C(F)(F)C(F)(F)F [Perfluorobutanesulfonic acid] (max tested concentration (log10 uM): 2) | 0 | 0 | 0 | 0 | 0 | 0 | 0 | 0 | 0
